In article PMC9154761, “Development of Praziquantel sulphonamide derivatives as antischistosomal drugs” (Journal of Enzyme Inhibition and Medicinal Chemistry, 2022):
Where two headings read alike, the source gives them in different places.

Assays:
hCA II = target: T1, hCA II (Homo sapiens, UniProt P00918); test: stopped flow CO2 hydrase assay, hCA II; assay type: biochemical; conditions: mean from three different assays, read-out: Ki hCAII
T1 construct: made in house
Protocol: (§1) An Applied Photophysics stopped-flow instrument was used to assay the CA catalysed CO2 hydration activity. […] The CO2 concentrations ranged from 1.7 to 17 mM for the determination of the kinetic parameters and inhibition constants. […] For each inhibitor, at least six traces of the initial 5–10% of the reaction were used to determine the initial velocity. The uncatalyzed rates were determined in the same manner and subtracted from the total observed rates. Stock solutions of the inhibitor (0.1 mM) were prepared in distilled–deionized water and dilutions up to 0.01 nM were done thereafter with the assay buffer. Inhibitor and enzyme solutions were preincubated together for 15 min at room temperature prior to the assay, to allow for the formation of the E–I complex. The inhibition constants were obtained by non-linear least-squares methods using PRISM 3 and the Cheng-Prusoff equation as reported earlier and represent the mean from at least three different determinations. All CA isoforms were recombinant proteins obtained in house, as reported earlier[14]^,[26–29].

hCA IV = target: T2, hCA IV (Homo sapiens, UniProt P22748); test: stopped flow CO2 hydrase assay, hCA IV; assay type: biochemical; conditions: mean from three different assays
T2 construct: made in house
T2 sequence (P22748 19-312): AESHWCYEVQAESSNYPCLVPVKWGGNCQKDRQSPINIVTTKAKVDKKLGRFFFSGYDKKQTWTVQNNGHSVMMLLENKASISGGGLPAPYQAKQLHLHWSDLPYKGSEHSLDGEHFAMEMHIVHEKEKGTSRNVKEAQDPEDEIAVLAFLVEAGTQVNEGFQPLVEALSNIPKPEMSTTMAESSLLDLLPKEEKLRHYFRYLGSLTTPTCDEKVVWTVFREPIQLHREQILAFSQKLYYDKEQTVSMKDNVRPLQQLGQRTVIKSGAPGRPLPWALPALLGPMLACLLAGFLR
Protocol: as §1

LdCA = LdCA (Leishmania donovani, UniProt A0A3S5H5R2); test: biochemical
LdCA, sequence (A0A3S5H5R2 entry or part of it): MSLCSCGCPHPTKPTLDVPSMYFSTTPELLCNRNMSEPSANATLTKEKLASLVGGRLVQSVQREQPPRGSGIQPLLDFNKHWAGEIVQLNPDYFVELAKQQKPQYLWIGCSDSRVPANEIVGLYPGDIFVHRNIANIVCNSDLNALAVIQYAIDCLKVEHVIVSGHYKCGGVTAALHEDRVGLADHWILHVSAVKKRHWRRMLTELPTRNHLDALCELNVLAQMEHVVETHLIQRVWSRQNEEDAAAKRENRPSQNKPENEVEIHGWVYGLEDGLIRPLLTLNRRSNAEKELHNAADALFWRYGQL
Protocol: (§2) An Applied Photophysics stopped-flow instrument was used to assay the CA catalysed CO2 hydration activity. […] The uncatalyzed rates were determined in the same manner and subtracted from the total observed rates. Stock solutions of the inhibitor (0.1 mM) were prepared in distilled–deionized water and dilutions up to 0.01 nM were done thereafter with the assay buffer. Inhibitor and enzyme solutions were preincubated together for 15 min at room temperature prior to the assay, to allow for the formation of the E–I complex. The inhibition constants were obtained by non-linear least-squares methods using PRISM 3 and the Cheng-Prusoff equation as reported earlier and represent the mean from at least three different determinations. All CA isoforms were recombinant proteins obtained in house, as reported earlier[14]^,[26–29].

SmCA = SmCA (Schistosoma mansoni, UniProt A0A3Q0KSG2); test: biochemical
SmCA, sequence (A0A3Q0KSG2 entry or part of it): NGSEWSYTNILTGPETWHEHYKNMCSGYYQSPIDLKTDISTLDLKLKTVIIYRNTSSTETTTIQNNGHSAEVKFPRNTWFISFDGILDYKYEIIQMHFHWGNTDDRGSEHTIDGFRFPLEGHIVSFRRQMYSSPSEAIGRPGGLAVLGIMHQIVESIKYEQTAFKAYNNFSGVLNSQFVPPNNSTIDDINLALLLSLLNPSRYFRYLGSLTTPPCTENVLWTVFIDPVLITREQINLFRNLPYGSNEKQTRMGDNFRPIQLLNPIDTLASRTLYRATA
Protocol: as §2

hCA IX = target: T3, hCA IX (Homo sapiens, UniProt Q16790); test: stopped flow CO2 hydrase assay, hCA IX; assay type: biochemical; conditions: mean from three different assays
T3 construct: made in house
Protocol: as §1

hCA I = target: T4, hCA I (Homo sapiens, UniProt P00915); test: stopped flow CO2 hydrase assay, hCA I; assay type: biochemical; conditions: mean from three different assays
T4 construct: made in house
T4 sequence (P00915 whole entry): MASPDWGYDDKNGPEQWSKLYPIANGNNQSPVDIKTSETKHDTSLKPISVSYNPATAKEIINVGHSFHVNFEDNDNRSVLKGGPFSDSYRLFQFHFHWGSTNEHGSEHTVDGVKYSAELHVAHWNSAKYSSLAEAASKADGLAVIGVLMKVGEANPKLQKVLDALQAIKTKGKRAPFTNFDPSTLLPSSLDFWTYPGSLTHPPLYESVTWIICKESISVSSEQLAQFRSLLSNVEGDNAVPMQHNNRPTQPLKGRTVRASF
Protocol: as §1

[1] = stopped flow CO2 hydrase assay, mean from three different assays, read-out: Ki LdCA
[2] = stopped flow CO2 hydrase assay, mean from three different assays, read-out: Ki SmCA

Row | SMILES | Ki (hCA II) [nM] | Ki (hCA IV) [nM] | Ki (LdCA; [1]) [nM] | Ki (SmCA; [2]) [nM] | Ki (hCA IX) [nM] | Ki (hCA I) [nM] | Ki (LdCA) [nM] | Ki (SmCA) [nM]
1 | NS(=O)(=O)c1cccc(NC(=O)NCc2ccc(C(=O)N3CC(=O)N4CCc5ccccc5C4C3)cc2)c1 (stereo not drawn) [Compound 28b, 3–(3-(4–(4-Oxo-1,3,4,6,7,11b-hexahydro-2H-pyrazino[2,1-a]isoquinoline-2-carbonyl)benzyl)ureido)benzenesulfonamide] | 14.9 ± 1.5 | 851 ± 56.2 | 300 ± 30.5 | 824 ± 66.8 | 29.9 ± 1.6 | 96.5 ± 6.5 | – | –
2 | NS(=O)(=O)c1cccc(NC(=S)N2CC(=O)N3CCc4ccccc4C3C2)c1 (stereo not drawn) [Compound 35b, 4-Oxo-N-(3-sulfamoylphenyl)-1,3,4,6,7,11b-hexahydro-2H-pyrazino[2,1-a]isoquinoline-2-carbothioamide] | 8 ± 0.8 | 47.9 ± 4.1 | 237 ± 12.5 | 6150 ± 612 | 83.3 ± 7.3 | 86.5 ± 9 | – | –
3 | NS(=O)(=O)c1ccc(C(=O)Nc2nc(CC(=O)N3CC(=O)N4CCc5ccccc5C4C3)cs2)cc1 (stereo not drawn) [Compound 30, N-(4–(2-oxo-2–(4-oxo-1,3,4,6,7,11b-hexahydro-2H-pyrazino[2,1-a]isoquinolin-2-yl)ethyl)thiazol-2-yl)-4-sulfamoylbenzamide] | 8.5 ± 0.5 | 422 ± 26.6 | 81.3 ± 6.4 | 7.8 ± 0.6 | 119 ± 12.4 | 58.6 ± 6.2 | – | –
4 | NS(=O)(=O)c1ccc(C(=O)N2CC(=O)N3CCc4ccccc4C3C2)cc1 (stereo not drawn) [Compound 4a, 4–(4-Oxo-1,3,4,6,7,11b-hexahydro-2H-pyrazino[2,1-a]isoquinoline-2-carbonyl) benzenesulfonamide] | 44.6 ± 3.4 | 8860 ± 617 | 371 ± 26.9 | 1890 ± 195 | 30.3 ± 3 | 93.8 ± 8.8 | – | –
5 | NS(=O)(=O)c1ccc(NC(=S)N2CC(=O)N3CCc4ccccc4C3C2)cc1 (stereo not drawn) [Compound 35a, 4-Oxo-N-(4-sulfamoylphenyl)-1,3,4,6,7,11b-hexahydro-2H-pyrazino[2,1-a]isoquinoline-2-carbothioamide] | 53.9 ± 4.4 | 7110 ± 404 | 323 ± 22.2 | 79.4 ± 4.2 | 82.2 ± 8.6 | 303 ± 24.1 | – | –
6 | NS(=O)(=O)c1ccc(NC(=O)NCc2ccc(C(=O)Nc3nc(CC(=O)N4CC(=O)N5CCc6ccccc6C5C4)cs3)cc2)cc1 (stereo not drawn) [Compound 29a, N-(4–(2-oxo-2–(4-oxo-1,3,4,6,7,11b-hexahydro-2H-pyrazino[2,1-a]isoquinolin-2-yl)ethyl)thiazol-2-yl)-4-((3–(4-sulfamoylphenyl)ureido)methyl)benzamide] | 49.6 ± 3.2 | 541 ± 30.3 | 85.5 ± 6.77 | 1640 ± 97 | 31.9 ± 1.9 | 314 ± 30.5 | – | –
7 | NS(=O)(=O)c1ccc(NC(=S)Nc2ccc([Se]Cc3ccc(C(=O)N4CC(=O)N5CCc6ccccc6C5C4)cc3)cc2)cc1 (stereo not drawn) [Compound 9, 4–(3-(4-((4–(4-oxo-1,3,4,6,7,11b-hexahydro-2H-pyrazino[2,1-a]isoquinoline-2-carbonyl)benzyl)selanyl)phenyl)thioureido)benzenesulfonamide] | 131 ± 14 | 966 ± 82.8 | – | – | 174 ± 17.2 | 486 ± 24.9 | 276 ± 22.4 | 771 ± 40.1
8 | NS(=O)(=O)c1cccc(NC(=O)NCc2ccc(C(=O)Nc3nc(CC(=O)N4CC(=O)N5CCc6ccccc6C5C4)cs3)cc2)c1 (stereo not drawn) [Compound 29b, N-(4–(2-oxo-2–(4-oxo-1,3,4,6,7,11b-hexahydro-2H-pyrazino[2,1-a]isoquinolin-2-yl)ethyl)thiazol-2-yl)-4-((3–(3-sulfamoylphenyl)ureido)methyl)benzamide] | 7.1 ± 0.6 | 789 ± 66.2 | 218 ± 17.9 | 901 ± 77.6 | 199 ± 17.6 | 506 ± 27.9 | – | –
9 | O=C(C1CCCCC1)N1CC(=O)N2CCc3ccccc3C2C1 (stereo not drawn) [PZQ, Praziquantel] | > 10000 | > 10000 | > 10000 | > 10000 | > 10000 | > 10000 | – | –
